# Literature values, collected in US12246026B2, “Ganaxolone for use in treatment of status epilepticus” (Marinus Pharmaceuticals, Inc., priority 2019, dated 2025).
# Tested on: patients with super refractory SE
# Conditions: randomized, double-blind, placebo-controlled Phase 3 trial; cited from earlier work
smiles,measurement,value
CC(=O)[C@H]1CC[C@H]2[C@@H]3CC[C@H]4C[C@H](O)CC[C@]4(C)[C@H]3CC[C@]12C [brexanolone],efficacy over placebo,failed to show efficacy over placebo
